Data: patent US20050288347A1, “Certain triazole-based compounds, compositions, and uses thereof” (priority 2004, published 2005)
Entries after “also recorded” stand apart in the source; their conditions may differ.

These compounds were tested against protein kinase (assay: HTS ATP-utilizing enzyme assay, off-chip mobility-shift format (Caliper HTS 250)). Conditions: kinase(s) for which the compound exhibits protein kinase inhibitory activity; test compound 10 μM; active = greater than three-sigma from the mean activity of inactive compounds.
Assay type: biochemical, human
Procedure, shortened: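 Single-point screen at 10 μM compound in HEPES pH 7.5 buffer with Triton X-100 and BSA, 2.5 h at 20–22 °C. Substrate-to-phosphopeptide ratio measured by off-chip microfluidic mobility shift; EDTA wells as 100% and DMSO wells as 0% control, hits called at three-sigma limits.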
With `COCCn1c(S)nnc1-c1cc2ccccc2cc1O` [3-(5-mercapto-4-(2-methoxyethyl)-4H-1,2,4-triazol-3-yl)naphthalen-2-ol] the Kinase was “AURORA-A”.

Same assay, conditions: test compound 10 μM; active = activity greater than three-sigma from the mean of the predominately inactive population for that enzyme
`Cn1c(SCc2ccc(C(C)(C)C)cc2)nnc1-c1cccnc1` [3-(5-(4-tert-butylbenzylthio)-4-methyl-4H-1,2,4-triazol-3-yl)pyridine] was tested, and the “protein kinase against which the compound exhibits inhibitory activity (Table 3)” value was “PDGFRR-α”. In the case of `c1cncc(-c2nnc(SCC3CCCO3)[nH]2)c1` (stereo not drawn) [3-(5-((tetrahydrofuran-2-yl)methylthio)-4H-1,2,4-triazol-3-yl)pyridine], the “protein kinase against which the compound exhibits inhibitory activity (Table 3)” value is reported as “AURORA-A”. With `Cc1ccc(-n2c(SCc3ccccc3)nnc2-c2cccnc2)cc1` [3-(5-(benzylthio)-4-p-tolyl-4H-1,2,4-triazol-3-yl)pyridine] the “protein kinase against which the compound exhibits inhibitory activity (Table 3)” value was “AURORA-A”. For `c1ccc(CCn2c(SCc3ccccc3)nnc2-c2cccnc2)cc1` [3-(5-(benzylthio)-4-phenethyl-4H-1,2,4-triazol-3-yl)pyridine], the “protein kinase against which the compound exhibits inhibitory activity (Table 3)” value was “MSK1”. `c1cncc(-c2nnc(SCC3CC3)[nH]2)c1` [3-(5-(cyclopropylmethylthio)-4H-1,2,4-triazol-3-yl)pyridine] was tested, and the “protein kinase against which the compound exhibits inhibitory activity (Table 3)” value was “FLT-3; also recorded: AURORA-A”. With `OCC(O)CSc1nnc(-c2cccnc2)[nH]1` (stereo not drawn) [3-(5-(pyridin-3-yl)-4H-1,2,4-triazol-3-ylthio)propane-1,2-diol] the “protein kinase against which the compound exhibits inhibitory activity (Table 3)” value was “AURORA-A”. In the case of `CN(C)CCCSc1nnc(C(C)(C)C)[nH]1` [3-(5-tert-butyl-4H-1,2,4-triazol-3-ylthio)-N,N-dimethylpropan-1-amine], the “protein kinase against which the compound exhibits inhibitory activity (Table 3)” value is reported as “c-TAK1”. In the case of `COc1cccc(OCc2nnc(SC)n2C)c1` [3-((3-methoxyphenoxy)methyl)-4-methyl-5-(methylthio)-4H-1,2,4-triazole], the “protein kinase against which the compound exhibits inhibitory activity (Table 3)” value is reported as “AURORA-A”. `CCCCSc1nnc(COc2ccc(Br)cc2)n1CC` [3-((4-bromophenoxy)methyl)-5-(butylthio)-4-ethyl-4H-1,2,4-triazole] was tested, and the “protein kinase against which the compound exhibits inhibitory activity (Table 3)” value was “CDK2-cyclinA; also recorded: AURORA-A”. With `CCSc1nnc(COc2ccc(CC)cc2)n1C` [3-((4-ethylphenoxy)methyl)-5-(ethylthio)-4-methyl-4H-1,2,4-triazole] the “protein kinase against which the compound exhibits inhibitory activity (Table 3)” value was “AURORA-A”. For `COc1ccc(-c2nnc(SCc3cccnc3)[nH]2)cc1` [3-((5-(4-methoxyphenyl)-4H-1,2,4-triazol-3-ylthio)methyl)pyridine], the “protein kinase against which the compound exhibits inhibitory activity (Table 3)” value was “AURORA-A; also recorded: FLT-3; also recorded: DYRK2”. `Clc1ccc(OCc2nnc(SCc3cccnc3)[nH]2)cc1` [3-((5-((4-chlorophenoxy)methyl)-4H-1,2,4-triazol-3-ylthio)methyl)pyridine] was tested, and the “protein kinase against which the compound exhibits inhibitory activity (Table 3)” value was “FLT-3”. In the case of `CC(C)Cc1nnc(SCc2ccccc2)n1Cc1ccc(Cl)c(Cl)c1` [3-(benzylthio)-4-(3,4-dichlorobenzyl)-5-isobutyl-4H-1,2,4-triazole], the “protein kinase against which the compound exhibits inhibitory activity (Table 3)” value is reported as “AURORA-A”. With `Cc1nnc(SCc2ccccc2)n1Cc1ccc(Cl)c(Cl)c1` [3-(benzylthio)-4-(3,4-dichlorobenzyl)-5-methyl-4H-1,2,4-triazole] the “protein kinase against which the compound exhibits inhibitory activity (Table 3)” value was “GSK3-α; also recorded: GSK3-β; also recorded: c-TAK1”. `CCC(c1ccccc1)c1nnc(SCc2ccccc2)n1CCc1ccc(C)cc1` (stereo not drawn) [3-(benzylthio)-4-(4-methylphenethyl)-5-(1-phenylpropyl)-4H-1,2,4-triazole] was tested, and the “protein kinase against which the compound exhibits inhibitory activity (Table 3)” value was “c-TAK1”. `Cc1nnc(SCc2ccccc2)n1Cc1ccco1` [3-(benzylthio)-4-(furan-2-ylmethyl)-5-methyl-4H-1,2,4-triazole] was tested, and the “protein kinase against which the compound exhibits inhibitory activity (Table 3)” value was “GSK3-α”. For `CCn1c(C)nnc1SCc1ccccc1` [3-(benzylthio)-4-ethyl-5-methyl-4H-1,2,4-triazole], the “protein kinase against which the compound exhibits inhibitory activity (Table 3)” value was “GSK3-α”. `Clc1cccc(-c2nnc(SCc3ccccc3)[nH]2)c1` [3-(benzylthio)-5-(3-chlorophenyl)-4H-1,2,4-triazole] was tested, and the “protein kinase against which the compound exhibits inhibitory activity (Table 3)” value was “AURORA-A; also recorded: c-TAK1; also recorded: FLT-3”. In the case of `COc1ccc(-c2nnc(SCc3ccccc3)n2-c2ccccc2)cc1` [3-(benzylthio)-5-(4-methoxyphenyl)-4-phenyl-4H-1,2,4-triazole], the “protein kinase against which the compound exhibits inhibitory activity (Table 3)” value is reported as “INSR and SYK and PAK2”. In the case of `C=CCCc1nnc(SCc2ccccc2)n1Cc1ccc(Cl)c(Cl)c1` [3-(benzylthio)-5-(but-3-enyl)-4-(3,4-dichlorobenzyl)-4H-1,2,4-triazole], the “protein kinase against which the compound exhibits inhibitory activity (Table 3)” value is reported as “AURORA-A; also recorded: c-TAK1”. For `Clc1ccc(Cn2c(SCc3ccccc3)nnc2C2CCCCC2)cc1Cl` [3-(benzylthio)-5-cyclohexyl-4-(3,4-dichlorobenzyl)-4H-1,2,4-triazole], the “protein kinase against which the compound exhibits inhibitory activity (Table 3)” value was “c-TAK1”. With `Cc1nnc(SCc2ccccc2)n1CCc1ccccc1` [3-(benzylthio)-5-methyl-4-phenethyl-4H-1,2,4-triazole] the “protein kinase against which the compound exhibits inhibitory activity (Table 3)” value was “GSK3-β; also recorded: GSK3-α; also recorded: c-TAK1”. `Cc1nnc(SCc2ccccc2)[nH]1` [3-(benzylthio)-5-methyl-4H-1,2,4-triazole] was tested, and the “protein kinase against which the compound exhibits inhibitory activity (Table 3)” value was “AURORA-A; also recorded: DYRK2”. `c1ccc(CCSc2nnc(-c3ccc(-c4ccccc4)cc3)[nH]2)cc1` [3-(biphenyl-4-yl)-5-(phenethylthio)-4H-1,2,4-triazole] was tested, and the “protein kinase against which the compound exhibits inhibitory activity (Table 3)” value was “AURORA-A”. In the case of `CCCCSc1nnc(-c2ccc(Cl)c(Cl)c2)[nH]1` [3-(butylthio)-5-(3 ,4-dichlorophenyl)-4H-1,2,4-triazole], the “protein kinase against which the compound exhibits inhibitory activity (Table 3)” value is reported as “AURORA-A; also recorded: FLT-3; also recorded: GSK3-α”. For `CCCCSc1nnc(-c2cccc(C(F)(F)F)c2)[nH]1` [3-(butylthio)-5-(3-(trifluoromethyl)phenyl)-4H-1,2,4-triazole], the “protein kinase against which the compound exhibits inhibitory activity (Table 3)” value was “AURORA-A; also recorded: FLT-3; also recorded: GSK3-α”. For `CCCCSc1nnc(-c2ccc(F)cc2)[nH]1` [3-(butylthio)-5-(4-fluorophenyl)-4H-1,2,4-triazole], the “protein kinase against which the compound exhibits inhibitory activity (Table 3)” value was “AURORA-A; also recorded: FLT-3; also recorded: DYRK2”. `CCCCSc1nnc(-c2ccc(OC)cc2)[nH]1` [3-(butylthio)-5-(4-methoxyphenyl)-4H-1,2,4-triazole] was tested, and the “protein kinase against which the compound exhibits inhibitory activity (Table 3)” value was “AURORA-A; also recorded: FLT-3; also recorded: GSK3-α”. In the case of `CCCCSc1nnc(-c2ccc([N+](=O)[O-])cc2)[nH]1` [3-(butylthio)-5-(4-nitrophenyl)-4H-1,2,4-triazole], the “protein kinase against which the compound exhibits inhibitory activity (Table 3)” value is reported as “AURORA-A; also recorded: GSK3-α”. With `CCCCSc1nnc(COc2ccc(Cl)cc2)[nH]1` [3-(butylthio)-5-((4-chlorophenoxy)methyl)-4H-1,2,4-triazole] the “protein kinase against which the compound exhibits inhibitory activity (Table 3)” value was “FLT-3”. `CCCCSc1nnc(-c2ccccc2)[nH]1` [3-(butylthio)-5-phenyl-4H-1,2,4-triazole] was tested, and the “protein kinase against which the compound exhibits inhibitory activity (Table 3)” value was “AURORA-A; also recorded: FLT-3; also recorded: c-TAK1”. `COc1ccc(-c2nnc(SCC3CCCCC3)[nH]2)cc1` [3-(cyclohexylmethylthio)-5-(4-methoxyphenyl)-4H-1,2,4-triazole] was tested, and the “protein kinase against which the compound exhibits inhibitory activity (Table 3)” value was “AURORA-A; also recorded: c-TAK1”.
